Data: PMC8037418, “Outlining In Vitro and In Silico Cholinesterase Inhibitory Activity of Twenty-Four Natural Products of Various Chemical Classes: Smilagenin, Kokusaginine, and Methyl Rosmarinate as Emboldening Inhibitors” (Molecules, 2021)
In brackets after ≈: the same amount, converted by molar mass. Where two headings read alike, the source gives them in different places.

What was measured:
[1] = biological target: T1, AChE (Homo sapiens, UniProt P22303); test: biochemical; details: for inhibition at 100 µg/mL: read-out: ChE Inhibition (Inhibition % ± S.D. at 100 µg/mL) AChE
T1 sequence (P22303 32-614): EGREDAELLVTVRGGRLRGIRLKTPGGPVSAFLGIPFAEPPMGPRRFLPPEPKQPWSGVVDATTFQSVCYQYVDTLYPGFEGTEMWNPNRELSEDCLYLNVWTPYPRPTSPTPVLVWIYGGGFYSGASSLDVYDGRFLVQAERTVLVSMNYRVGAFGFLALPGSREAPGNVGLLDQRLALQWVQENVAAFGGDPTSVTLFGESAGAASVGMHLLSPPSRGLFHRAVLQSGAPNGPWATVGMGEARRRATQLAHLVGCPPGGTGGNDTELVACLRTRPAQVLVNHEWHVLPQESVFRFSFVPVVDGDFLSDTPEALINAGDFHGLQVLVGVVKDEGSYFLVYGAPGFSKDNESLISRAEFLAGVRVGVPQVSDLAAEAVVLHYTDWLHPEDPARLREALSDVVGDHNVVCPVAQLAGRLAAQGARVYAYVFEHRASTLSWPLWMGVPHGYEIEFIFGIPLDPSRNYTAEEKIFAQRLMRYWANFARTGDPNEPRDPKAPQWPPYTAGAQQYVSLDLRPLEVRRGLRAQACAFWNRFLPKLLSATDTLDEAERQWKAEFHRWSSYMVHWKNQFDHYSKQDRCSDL
Method: (§1) Inhibition of AChE and BChE was determined by Ellman’s method with slight modifications. To the reaction mixture, 140 µL of […] sodium phosphate buffer (pH 8), 20 µL of DTNB, 20 µL of enzyme (either AChE or BChE) and 20 µL of the samples to be tested was added later incubated for 15 min at 25 °C. About 10 µL of […] or butyrylthiocholine chloride which act as substrates to react with DTNB forming 5-thio-2-nitrobenzoate anion, that formed a yellow-colored complex, was added into the incubated sample. The absorbance is measured at 417 nm using a 96-well ELISA microplate reader (VersaMax, Molecular Devices, San Jose, CA, USA) Galanthamine was used the reference drug.
(§2) The measurements and calculations were evaluated by using Softmax PRO 4.3.2.LS software. Percentage of inhibition of AChE/BChE/TYR was determined by comparison of rates of reaction of test samples relative to blank samples. Extent of the enzymatic reaction was calculated based on the following equation: I% = (C-T)/C × 100, where I% is the activity of the enzyme as percent inhibition. E value expresses the effect of the test sample or the positive control on AChE/BChE/TYR enzyme activity articulated as the percentage of the remaining activity in the presence of test sample or positive control. C value is the absorbance of the control solvent (blank) in the presence of enzyme, where T is the absorbance of the tested sample (plant extract or positive control in the solvent) in the presence of enzyme.

[2] = biological target: T2, BChE (Homo sapiens, UniProt P06276); test: Microtiter (Ellman) assay for BChE inhibition; assay type: biochemical; details: for inhibition at 100 µg/mL: read-out: ChE Inhibition (Inhibition % ± S.D. at 100 µg/mL) BChE
T2 sequence (P06276 29-602): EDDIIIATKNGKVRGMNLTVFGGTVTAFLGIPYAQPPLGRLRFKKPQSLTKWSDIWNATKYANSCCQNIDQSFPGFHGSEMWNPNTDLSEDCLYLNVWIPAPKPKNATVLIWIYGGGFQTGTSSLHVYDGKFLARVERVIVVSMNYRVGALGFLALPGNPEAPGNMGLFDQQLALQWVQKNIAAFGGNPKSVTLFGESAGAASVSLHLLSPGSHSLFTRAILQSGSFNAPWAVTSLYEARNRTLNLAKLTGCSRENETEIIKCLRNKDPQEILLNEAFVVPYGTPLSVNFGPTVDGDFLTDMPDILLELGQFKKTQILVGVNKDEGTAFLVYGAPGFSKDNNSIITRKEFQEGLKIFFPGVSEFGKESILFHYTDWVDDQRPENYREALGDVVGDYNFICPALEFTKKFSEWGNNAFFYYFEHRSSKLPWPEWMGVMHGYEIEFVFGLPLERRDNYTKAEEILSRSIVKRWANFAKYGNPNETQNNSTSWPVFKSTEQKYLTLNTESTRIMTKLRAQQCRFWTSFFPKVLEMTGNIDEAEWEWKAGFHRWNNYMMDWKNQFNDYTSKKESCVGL
Method: as §1, §2

[3] = tested on: AChE of electric eel origin; details: cited from earlier work
[4] = biological target: T2, BChE; details: cited from earlier work
[5] = biological target: T1, AChE; details: cited from earlier work
[6] = at 100 µg/mL, n: 3, '-' = No inhibition
[7] = at 100 μg/mL, from Verbascum xanthophoeniceum and V. mucronatum

Molecule | inhibition at 100 µg/mL [1, 6] | inhibition at 100 µg/mL [2] | further results
COc1cc(C=CC(=O)OC2C(COC3OCC(O)(CO)C3O)OC(OCCc3ccc(O)c(O)c3)C(O)C2OC2OC(C)C(O)C(O)C2O)ccc1O (stereo not drawn) [Alyssonoside] | < 0% |  | inhibition at 100 µg/mL [2, 6]: 13 ± 2.07%
CC(C)(O)[C@@H]1CC[C@](C)([C@H]2[C@@H](O)C[C@@]3(C)[C@@H]4C[C@H](O[C@@H]5O[C@H](CO)[C@@H](O)[C@H](O)[C@H]5O)[C@H]5C(C)(C)[C@@H](O[C@@H]6OC[C@@H](O)[C@H](O)[C@H]6O)CC[C@@]56C[C@@]46CC[C@]23C)O1 [Astragaloside IV] | 4.8 ± 0.05% | 6.62 ± 2.72% | 
CC(=O)OC1C(O)COC(OC2CCC34CC35CCC3(C)C(C6(C)CCC(C(C)(C)O)O6)C(O)CC3(C)C5CC(OC3OC(CO)C(O)C(O)C3O)C4C2(C)C)C1OC(C)=O (stereo not drawn) [Astragaloside I] | < 0% | 8.38 ± 1.28% | 
CC(C)(O)[C@@H]1CC[C@](C)([C@H]2[C@@H](O)C[C@@]3(C)[C@@H]4C[C@H](O[C@@H]5O[C@H](CO)[C@@H](O)[C@H](O)[C@H]5O)[C@H]5C(C)(C)[C@@H](O[C@@H]6OC[C@@H](O)[C@H](O)[C@H]6O[C@@H]6O[C@H](CO)[C@@H](O)[C@H](O)[C@H]6O)CC[C@@]56C[C@@]46CC[C@]23C)O1 [Astragaloside VI] | 6.23 ± 2.82% | 7.72 ± 0.53% | 
CC(=O)OC1C(O)COC(OC2CCC34CC35CCC3(C)C(C6(C)CCC(C(C)(C)O)O6)C(O)CC3(C)C5CC(OC3OCC(O)C(O)C3O)C4C2(C)C)C1OC(C)=O (stereo not drawn) [Astrasieversianin II] | 8.01 ± 0.48% | 13.6 ± 1.79% | 
CC(C)(O)C1CCC(C)(C2C(O)CC3(C)C4CC(OC5OCC(O)C(O)C5O)C5C(C)(C)C(OC6OCC(O)C(O)C6O)CCC56CC46CCC23C)O1 (stereo not drawn) [Astrasieversianin X] | 8.6 ± 0.91% | 10.1 ± 2.34% | 
CC(CCC(O)C(C)(C)O)C1C(O)CC2(C)C3CC(OC4OC(CO)C(O)C(O)C4O)C4C(C)(C)C(OC5OCC(O)C(O)C5O)CCC45CC35CCC12C (stereo not drawn) [Cyclocanthoside E] | 2.18 ± 1.81% | 5.35 ± 1.82% | 
CC(CCC(O)C(C)(C)O)C1C(O)CC2(C)C3CC(OC4OC(CO)C(O)C(O)C4O)C4C(C)(C)C(OC5OCC(O)C(O)C5OC5OC(CO)C(O)C(O)C5O)CCC45CC35CCC12C (stereo not drawn) [Cyclocanthoside G] | 6.85 ± 0.72% | 8.23 ± 0.24% | 
C[C@@H]1CC[C@@]2(OC1)O[C@H]1C[C@H]3[C@@H]4CC=C5C[C@@H](O)CC[C@]5(C)[C@H]4CC[C@]3(C)[C@H]1[C@@H]2C [Diosgenin] | 4.31 ± 0.37% | 8.12 ± 2.64% | IC50 AChE [3]: 103.60 µg/mL (≈ 250 µM)
COc1ccc2c3c1O[C@H]1C[C@@H](O)C=C[C@@]31CCN(C)C2 [Galanthamine HBr, reference compound] |  | 60.3 ± 1.36% | 
C[C@@H]1CC[C@@]2(OC1)O[C@H]1C[C@H]3[C@@H]4CC[C@H]5C[C@@H](O)CC[C@]5(C)[C@H]4CC(=O)[C@]3(C)[C@H]1[C@@H]2C [Hecogenin] | 25% | 17.3 ± 1.84% | ChE Inhibition (Inhibition % ± S.D. at 100 µg/mL) AChE [1, 6]: 25.36 ± 1.11%
COC(=O)C1=COC(OC2OC(CO)C(O)C(O)C2O)C2C(C)(O)CCC12O (stereo not drawn) [Ipolamide] | < 0% |  | inhibition at 100 µg/mL [2, 6]: 12.4 ± 2.28%
COc1cc2nc3occc3c(OC)c2cc1OC [Kokusaginine] | 62.4 ± 3.2% |  | IC50 [1]: 271 µM; IC50 [2]: 237 µM; inhibition at 100 µg/mL [2, 6]: 67.4 ± 3.1%
COC(=O)C1=COC(OC2OC(CO)C(O)C(O)C2O)C2C1(O)CC(O)C2(C)O (stereo not drawn) [Lamiide] | < 0% |  | inhibition at 100 µg/mL [2, 6]: 8.77 ± 0.92%
O=C(O)C1OC(Oc2cc(O)c3c(=O)cc(-c4ccc(O)c(O)c4)oc3c2)C(O)C(O)C1O (stereo not drawn) [Luteolin-7-O-glucuronide] | < 0% | < 0% | 
CC(=O)OC1C(OC(CCC(C)C2CCC3(C)C4C(O)CC5C(C)(C)C(OC6OC(C)C(O)C(O)C6O)CC(O)C56CC46CCC23C)C(C)(C)O)OCC(O)C1O (stereo not drawn) [Macrophyllosaponin A] | 9.69 ± 0.85% | 12.2 ± 1.83% | 
CC(CCC(OC1OCC(O)C(O)C1O)C(C)(C)O)C1CCC2(C)C3C(O)CC4C(C)(C)C(OC5OC(C)C(O)C(O)C5O)CC(O)C45CC35CCC12C (stereo not drawn) [Macrophyllosaponin B] | 13.2 ± 0.92% | 12.2 ± 1.16% | 
CC(CCC(O)C(C)(C)OC1OCC(O)C(O)C1O)C1CCC2(C)C3C(O)CC4C(C)(C)C(OC5OC(C)C(O)C(O)C5O)CC(O)C45CC35CCC12C (stereo not drawn) [Macrophyllosaponin C] | 12.4 ± 1.4% | 16.5 ± 1.57% | 
CC(CCC(OC1OCC(O)C(O)C1OC1OCC(O)C(O)C1O)C(C)(C)O)C1CCC2(C)C3C(O)CC4C(C)(C)C(OC5OC(C)C(O)C(O)C5O)CC(O)C45CC35CCC12C (stereo not drawn) [Macrophyllosaponin D] | 4.31 ± 1.32% | 10.1 ± 0.78% | 
COC(=O)[C@@H](Cc1ccc(O)c(O)c1)OC(=O)/C=C/c1ccc(O)c(O)c1 [Methyl rosmarinate] | 16.8 ± 3.84% |  | IC50 [2]: 111 µM; inhibition at 100 µg/mL [2, 6]: 82.74 ± 0.62%
CC1CCC2(OC1)OC1CC3C4CCC5CC(O)CCC5(C)C4CC(O)C3(C)C1C2C (stereo not drawn) [Rockogenin] |  | 15.2 ± 2.56% | inhibition at 100 µg/mL [1]: 5.29 ± 0.52%
C[C@@H]1CC[C@@]2(OC1)O[C@H]1C[C@H]3[C@@H]4CC[C@@H]5C[C@@H](O)CC[C@]5(C)[C@H]4CC[C@]3(C)[C@H]1[C@@H]2C [Smilagenin] | 62.4 ± 2.44% | 15 ± 3.01% | IC50 [1]: 104 µM; IC50 ([4]; compound isolated from Asparagus racemosus): 5.4 µM; IC50 ([5]; read-out: IC50 AChE, compound isolated from Asparagus racemosus): 9.9 µM
C[C@@H]1CC[C@@]2(OC1)O[C@H]1C[C@H]3[C@@H]4CC[C@H]5C[C@@H](O)CC[C@]5(C)[C@H]4CC[C@]3(C)[C@H]1[C@@H]2C [Tigogenin] | 17% | 22.2 ± 3.09% | ChE Inhibition (Inhibition % ± S.D. at 100 µg/mL) AChE [1, 6]: 17.09 ± 0.69%
C[C@@H]1O[C@@H](O[C@@H]2[C@@H](O)[C@H](OCCc3ccc(O)c(O)c3)O[C@H](CO)[C@H]2OC(=O)/C=C/c2ccc(O)c(O)c2)[C@H](O)[C@H](O)[C@H]1O [Verbascoside] | 8.12 ± 1.49% | 22.2 ± 2.54% | IC50 ([4]; Calceolaria talcana study): 170 µM; ChE inhibition (BChE) [4, 7]: below 30%; inhibition against BChE ([4]; isolated from Olea europea L.): no inhibition; IC50 ([5]; Calceolaria talcana study, read-out: IC50 AChE (converted)): 304 µM; AChE inhibition ([5]; at 100 μg/mL, from Pseuderanthemum carruthersii): < 50%; ChE inhibition (AChE) [5, 7]: below 30%; inhibition against AChE ([5]; isolated from Olea europea L.): no inhibition
Forsythoside B |  |  | ChE Inhibition (Inhibition % ± S.D. at 100 µg/mL) BChE [2, 6]: 14.80 ± 2.31%; AChE inhibition ([5]; Calceolaria talcana study): no AChE inhibition
tannic acid [reference compound] |  |  | IC50 AChE [3]: 0.10 µg/mL
